Measured values published in patent publication US20260217767A1, “NOVEL A4B7 THIOETHER PEPTIDE DIMER ANTAGONISTS” (Protagonist Therapeutics, Inc., priority 2014, published 2026).
Where a SMILES comes first, the peptide text is derived from it.

Experiments:
rh integrin α4β7 = target: T1, rh integrin α4β7 (Homo sapiens, UniProt P13612+P26010); test: α4β7-MAdCAM Competition ELISA; type: binding; conditions: thioether monomer peptides, Table 6; read-out: ELISA A4B7
T1 construct: purchased R&D Systems 5397-A30
T1 sequence (P13612 34-977 limits assumed): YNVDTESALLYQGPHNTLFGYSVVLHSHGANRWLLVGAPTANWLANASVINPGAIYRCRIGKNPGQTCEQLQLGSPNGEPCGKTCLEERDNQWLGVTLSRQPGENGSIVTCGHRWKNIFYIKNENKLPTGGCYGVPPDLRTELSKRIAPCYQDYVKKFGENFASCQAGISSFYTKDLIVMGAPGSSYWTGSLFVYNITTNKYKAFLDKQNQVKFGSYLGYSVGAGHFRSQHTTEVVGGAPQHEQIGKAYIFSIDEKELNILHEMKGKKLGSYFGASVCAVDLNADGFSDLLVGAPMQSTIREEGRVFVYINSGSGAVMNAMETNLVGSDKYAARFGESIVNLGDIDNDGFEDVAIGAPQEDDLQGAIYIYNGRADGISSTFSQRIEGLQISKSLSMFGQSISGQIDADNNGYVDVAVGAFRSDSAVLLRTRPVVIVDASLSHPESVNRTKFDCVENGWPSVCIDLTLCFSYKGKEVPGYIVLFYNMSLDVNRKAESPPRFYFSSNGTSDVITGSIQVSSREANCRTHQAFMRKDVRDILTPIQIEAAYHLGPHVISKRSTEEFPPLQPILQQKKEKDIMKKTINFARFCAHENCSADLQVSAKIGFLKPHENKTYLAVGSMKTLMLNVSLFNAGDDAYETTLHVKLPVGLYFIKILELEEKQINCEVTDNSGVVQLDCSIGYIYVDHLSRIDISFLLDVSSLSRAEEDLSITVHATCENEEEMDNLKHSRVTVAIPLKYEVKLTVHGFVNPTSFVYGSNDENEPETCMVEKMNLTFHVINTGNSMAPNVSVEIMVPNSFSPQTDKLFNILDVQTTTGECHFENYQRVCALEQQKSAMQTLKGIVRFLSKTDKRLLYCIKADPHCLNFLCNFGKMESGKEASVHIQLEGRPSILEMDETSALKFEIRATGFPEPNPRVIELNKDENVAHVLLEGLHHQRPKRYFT
T1 sequence (P26010 20-723 limits assumed): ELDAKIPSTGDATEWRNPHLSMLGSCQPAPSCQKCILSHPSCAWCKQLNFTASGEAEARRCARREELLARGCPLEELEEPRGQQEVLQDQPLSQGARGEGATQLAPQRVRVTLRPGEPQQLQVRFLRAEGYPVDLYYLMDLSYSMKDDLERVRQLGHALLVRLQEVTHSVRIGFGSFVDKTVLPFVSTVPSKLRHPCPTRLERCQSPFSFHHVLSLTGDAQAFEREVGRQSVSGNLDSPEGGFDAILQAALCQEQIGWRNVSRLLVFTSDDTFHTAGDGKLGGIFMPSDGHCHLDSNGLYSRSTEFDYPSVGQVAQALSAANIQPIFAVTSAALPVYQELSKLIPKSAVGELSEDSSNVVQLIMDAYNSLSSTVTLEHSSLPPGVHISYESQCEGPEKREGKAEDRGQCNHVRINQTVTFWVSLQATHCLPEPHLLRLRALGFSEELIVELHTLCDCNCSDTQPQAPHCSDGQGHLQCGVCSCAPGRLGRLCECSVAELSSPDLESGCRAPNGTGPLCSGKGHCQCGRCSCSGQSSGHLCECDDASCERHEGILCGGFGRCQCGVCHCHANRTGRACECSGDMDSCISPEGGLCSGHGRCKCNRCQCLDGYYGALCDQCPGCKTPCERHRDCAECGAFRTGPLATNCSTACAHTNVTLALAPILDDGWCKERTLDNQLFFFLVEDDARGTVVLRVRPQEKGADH
Description: α4β7-MAdCAM Competition ELISA A nickel coated plate (Pierce #15442) was coated with rh integrin α4β[…] Systems #5397-A30) at 800 ng/well and incubated at room temperature with shaking for 1 hr. The solution was then removed by shaking and blocked with assay buffer (50 mM Tris-HCl pH7.6, 150 mM NaCl, 1 mM MnCl2 or MgCl2, 0.05% Tween-20 and 0.5% BSA) at 250 ul/well. The plate was then incubated at room temperature for 1 hr. Each well was washed 3 times with wash buffer (50 mM Tris-HCl pH7.6, 100 mM NaCl, 1 mM MnCl2 or MgCl2, 0.05% Tween-20). To each well was added 25 ul of a serial dilution (3-fold dilutions in assay buffer) of peptides starting at 20 μM. 25 ul of recombinant human MAdCAM-1 (R&D Systems #6056-MC) was then added to each well at a fixed concentration 20 nM. The final starting peptide concentration was 10 μM, and the final MAdCAM-1 concentration was 10 nM. The plates were then incubated at room temperature for 1 hr to reach binding equilibrium. The wells were then washed three times with wash buffer. 50 ul of mouse anti-human IgG1-HRP (Invitrogen #A10648) diluted in 1:2000 in assay buffer was then added to each well. The wells were incubated at room temperature for 45 min with shaking. The wells were then washed 3 times with wash buffer. 100 ul of TMB were then added to each well and closely observe during development time. The reaction was stopped with 2N H2SO4 and absorbance was read at 450 nm.

[1] = Simulated Intestinal Fluid (SIF) Stability Assay; type: in vitro ADME; conditions: pig, 37° C., monomers, Table 6; for half-life at 22 μM: simulated intestinal fluid (SIF) with 1% porcine pancreatin, pH 6.5, porcine pancreatin; for half-life: porcine pancreatin
Description: Simulated Intestinal Fluid (SIF) Stability Assay
Studies were carried out in simulated intestinal fluid (SIF) to evaluate intestinal stability of the peptide molecules of the instant invention. To prepare the SIF reagent, blank FASSIF was prepared by dissolving 0.348 g NaOH, 3.954 g sodium phosphate monobasic monohydrate and 6.186 g NaCl in a final volume of 1 liter water (final pH=6.5). To this solution, 24 g porcine pancreatin (Sigma catalog P7545) was added and stirred for 30 minutes (final pancreatin concentration is 2.4%). The solution was filtered through a cheese cloth and a No. 1 Whatman filter, and 10 ml aliquots were stored at −70° C. To run the reaction, a 10 ml aliquot was thawed at 37° C., and 125 μl aliquots were removed and mixed with an equal volume of blank FASSIF. The peptide stock solution (10 mM in 100% DMSO) was diluted 75-fold in blank FASSIF. A 50 μl aliquot of the diluted peptide was combined with 125 μl pancreatin (2.4%) and 125 μl blank FASSIF to yield final concentrations of 1% pancreatin and 22 μM peptide. The reactions were incubated at 37° C., and at various time points 50 μl aliquots were removed and added to 200 μl of quench solution containing 50% acetonitrile, 50% methanol, 5% formic acid, and 1 μg/ml internal standard. The quenched samples were centrifuged at 10,000 rpm for 10 minutes, and the supernatants were analyzed by LCMS/MS. The percent remaining at each time point was calculated based on the peak area response ratio of test to compound to internal standard. Half-lives were calculated by fitting to a first-order exponential decay equation using GraphPad. A small sampling of the results of these studies is provided and discussed herein and in the accompanying figures.

SMILES	IC50 (rh integrin α4β7)	half-life at 22 μM [1]	half-life [1]
CC(C)C[C@@H]1NC(=O)[C@H]([C@@H](C)O)NC(=O)[C@H](CC(=O)O)NC(=O)[C@H](CO)NC(=O)[C@H](CCCNC(=N)N)N(C)C(=O)c2ccccc2CSC(C)(C)[C@@H](C(=O)N[C@@H](Cc2ccc3ccccc3c2)C(=O)N[C@@H](CCC(=O)O)CC(=O)N[C@H](CCCCN)C(N)=O)NC1=O [compound 70]	< 25 nM	> 180 min	–
CC(C)C[C@@H]1NC(=O)[C@H]([C@@H](C)O)NC(=O)[C@H](CC(=O)O)NC(=O)[C@H](CO)NC(=O)[C@H](CCCNC(=N)N)NC(=O)c2ccccc2CSC[C@@H](C(=O)N[C@@H](Cc2c[nH]c3ccccc23)C(=O)N[C@H](CCCCN)C(N)=O)NC1=O [compound 59]	100 to 1000 nM	< 20 min	–
CC(C)C[C@@H]1NC(=O)[C@H]([C@@H](C)O)NC(=O)[C@H](CC(=O)O)NC(=O)[C@H](CO)NC(=O)[C@H](CCCNC(=N)N)N(C)C(=O)CCSCC[C@@H](C(=O)N[C@@H](Cc2c[nH]c3ccccc23)C(=O)N[C@H](CCCCN)C(N)=O)NC1=O [compound 57]	100 to 1000 nM	–	< 20 min
CC(C)C[C@@H]1NC(=O)[C@H]([C@@H](C)O)NC(=O)[C@H](CC(=O)O)NC(=O)[C@H](CO)NC(=O)[C@H](CCCNC(=N)N)N(C)C(=O)c2ccccc2CSCC[C@@H](C(=O)N[C@@H](Cc2c[nH]c3ccccc23)C(=O)N[C@@H](CCC(=O)O)C(=O)N[C@H](CCCCN)C(N)=O)NC1=O [compound 67] (HELM PEPTIDE1{[meR].S.D.T.L.[O=C([C@H](CCS[*:3])N[*:1])[*:2]].W.E.[dK].[am]}|CHEM1{[O=C(c1ccccc1C[*:2])[*:1]]}$PEPTIDE1,CHEM1,1:R1-1:R1|PEPTIDE1,CHEM1,6:R3-1:R2$$$V2.0)	< 25 nM	–	< 20 min
CC(C)C[C@@H]1NC(=O)[C@H]([C@@H](C)O)NC(=O)[C@H](CC(=O)O)NC(=O)[C@H](CO)NC(=O)[C@H](CCCNC(=N)N)N(C)C(=O)c2ccccc2CSC(C)(C)[C@@H](C(=O)N[C@@H](Cc2ccc(O)cc2)C(=O)N[C@@H](CCC(=O)O)C(=O)N[C@H](CCCCN)C(N)=O)NC1=O [compound 78] (HELM PEPTIDE1{[meR].S.D.T.L.[Pen].Y.E.[dK].[am]}|CHEM1{[O=C(c1ccccc1C[*:2])[*:1]]}$PEPTIDE1,CHEM1,1:R1-1:R1|PEPTIDE1,CHEM1,6:R3-1:R2$$$V2.0)	< 25 nM	78 min	–
CC(C)C[C@@H]1NC(=O)[C@H]([C@@H](C)O)NC(=O)[C@H](CC(=O)O)NC(=O)[C@H](CO)NC(=O)[C@H](CCCNC(=N)N)N(C)C(=O)c2ccccc2CSC(C)(C)[C@@H](C(=O)N[C@@H](Cc2c[nH]c3ccccc23)C(=O)N[C@@H](CCC(=O)O)CC(=O)N[C@H](CCCCN)C(N)=O)NC1=O [compound 61] (HELM PEPTIDE1{[meR].S.D.T.L.[Pen].W.[O=C(O)CC[C@@H](CC(=O)[*:2])N[*:1]].[dK].[am]}|CHEM1{[O=C(c1ccccc1C[*:2])[*:1]]}$PEPTIDE1,CHEM1,1:R1-1:R1|PEPTIDE1,CHEM1,6:R3-1:R2$$$V2.0)	< 25 nM	> 180 min	–
CC(C)C[C@@H]1NC(=O)[C@H]([C@@H](C)O)NC(=O)[C@H](CC(=O)O)NC(=O)[C@H](CO)NC(=O)[C@H](CCCNC(=N)N)N(C)C(=O)c2ccccc2CSC(C)(C)[C@@H](C(=O)N[C@H](Cc2ccccc2)C(=O)N[C@@H](CCC(=O)O)C(=O)N[C@H](CCCCN)C(N)=O)NC1=O [compound 72] (HELM PEPTIDE1{[meR].S.D.T.L.[Pen].[dF].E.[dK].[am]}|CHEM1{[O=C(c1ccccc1C[*:2])[*:1]]}$PEPTIDE1,CHEM1,1:R1-1:R1|PEPTIDE1,CHEM1,6:R3-1:R2$$$V2.0)	< 25 nM	> 180 min	–
CC(C)C[C@@H]1NC(=O)[C@H]([C@@H](C)O)NC(=O)[C@H](CC(=O)O)NC(=O)[C@H](CO)NC(=O)[C@H](CCCNC(=N)N)N(C)C(=O)C(C)SC[C@@H](C(=O)N[C@@H](Cc2c[nH]c3ccccc23)C(=O)N[C@H](CCCCN)C(N)=O)NC1=O (single isomer, unassigned) [compound 51]	25 to 100 nM	6 min	–
CC(C)C[C@@H]1NC(=O)[C@H]([C@@H](C)O)NC(=O)[C@H](CC(=O)O)NC(=O)[C@H](CO)NC(=O)[C@H](CCCNC(=N)N)N(C)C(=O)c2ccccc2CSC(C)(C)[C@@H](C(=O)N[C@@H](Cc2ccc(O)cc2)C(=O)N[C@H](CCC(=O)O)C(=O)N[C@H](CCCCN)C(N)=O)NC1=O [compound 79] (HELM PEPTIDE1{[meR].S.D.T.L.[Pen].Y.[dE].[dK].[am]}|CHEM1{[O=C(c1ccccc1C[*:2])[*:1]]}$PEPTIDE1,CHEM1,1:R1-1:R1|PEPTIDE1,CHEM1,6:R3-1:R2$$$V2.0)	< 25 nM	–	–
CC(=O)NCCCC[C@H](C(N)=O)N(C)C(=O)[C@H](CCC(=O)O)NC(=O)[C@H](Cc1c[nH]c2ccccc12)NC(=O)[C@H]1NC(=O)[C@H](CC(C)C)NC(=O)[C@H]([C@@H](C)O)NC(=O)[C@H](CC(=O)O)NC(=O)[C@H](CO)NC(=O)[C@H](CCCNC(=N)N)N(C)C(=O)c2ccccc2CSC1(C)C [compound 84] (HELM PEPTIDE1{[meR].S.D.T.L.[Pen].W.E.[CN([C@H](CCCCN[*:3])C(=O)[*:2])[*:1]].[am]}|PEPTIDE2{[ac]}|CHEM1{[O=C(c1ccccc1C[*:2])[*:1]]}$PEPTIDE1,PEPTIDE2,9:R3-1:R2|PEPTIDE1,CHEM1,1:R1-1:R1|PEPTIDE1,CHEM1,6:R3-1:R2$$$V2.0)	< 25 nM	–	–
